The target of one test is T1, human H4 (Homo sapiens, UniProt Q9H3N8).
T1 construct: host or cells: CHO-K1
As to the kind of experiment: In vitro histamine receptor cell-based assay (aequorin bioluminescence), H4 antagonism. The note with it: CHO-K1 cells expressing human H4, aequorin and Gα16; histamine at EC80; read-out: H4 Antagonist EC50. The procedure, abridged: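 Antagonism read as loss of aequorin luminescence after histamine (EC80 final) addition, following 15 min room-temperature compound pretreatment of coelenterazine-h-loaded (5 μM) CHO-K1 cells co-expressing human H4 and Gα16. Efficacy given relative to 10 μM JNJ7777120; agonism excluded in separate no-histamine runs.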

For test [1], the system named is Hartley VAF outbred guinea pigs. As to the kind of experiment: Allergic conjunctivitis in passively sensitized guinea pigs (conjunctival EPO activity). Format: in vivo. Conditions: 0.01% bid topical, 1 hour prior to and 8 hours after ovalbumin challenge; reduction of conjunctival EPO activity vs dexamethasone. Also on record: key: +: a 0.01% bid dose was statistically equivalent to dexamethasone with respect to reduction of EPO activity; −: the compound was statistically inferior to dexamethasone and not different than vehicle. The protocol: (§1) Male Hartley VAF outbred guinea pigs were passively sensitized to ovalbumin by a single OD subconjunctival injection of undiluted guinea pig anti-ovalbumin antiserum 24 hours before OD topical challenge with 500 μg ovalbumin in saline. Control animals were injected with saline only and challenged with ovalbumin. To determine acute phase drug efficacy, 30 min after challenge animals were clinically scored by a masked observer for severity of signs of conjunctivitis based on a standard scale. Test compounds were administered topically 1 hour prior to challenge (QD protocol), or 1 hour prior to challenge and again 8 hours after challenge (BID protocol). Twenty-four hours after challenge, animals were euthanized and conjunctivae were harvested for determination of tissue eosinophil peroxidase (EPO) concentration as a marker of allergic inflammation. Homogenates of freshly collected tissues were prepared by shaking the tissues in 2 mL round-bottom tubes containing 0.5 mL of homogenization buffer (50 mM Tris HCl, pH 8.0, 6 mM KBr) and one 5-mm stainless steel bead on a Qiagen TissueLyser at 30 Hz for 5 min. Homogenates were frozen and thawed once, then centrifuged at 10,000 rpm for 5 min. EPO activity in supernatants was measured by reacting diluted homogenates with a solution of 6 mM o-phenylenediamine substrate and 8.8 mM H2O2 in homogenization buffer for 3 min. The reaction was stopped with 4M H2SO4 and absorbances were measured at […] on a spectrophotometric plate reader. Total EPO in samples was calculated from a standard curve of recombinant human EPO in each assay. EPO activity was normalized to total protein concentration (Pierce BCA assay) in supernatants. Background EPO activity was determined from the unsensitized, antigen-challenged control group. Percent inhibition was calculated from the sensitized, antigen-challenged, vehicle-treated control group in each experiment. Ovalbumin-injected animals dosed topically with 0.1% w/v dexamethasone (dex) served as positive control. Groups were compared by ANOVA with Dunnett's or Tukey's post-hoc tests where appropriate with significance assigned at the 95% confidence level.
(§2) The table below summarizes the results.

The test system of another test is CD-1 mice. Description: Model of scratching induced by histamine in CD-1 mice (assessment of H4 antagonism). Format: in vivo. Conditions: 30 mg/kg oral gavage 30 min before i.d. histamine; bouts counted for 20 minutes; female CD-1 mice. On the procedure:
Assessment of H4 Antagonism—Model of Scratching Induced by Histamine in CD-1 mice.
Female CD-1 mice (Charles River, Hollister, Calif.), approximately 10 weeks old were housed under controlled conditions (12 h light: 12 h dark, 21° C.) and allowed ad libitum access to food (Purina LabDiet 5P14) and water. Animals were deprived of access to food and water for 1 hour during the experimental itch protocol. All studies were performed under the guidelines of the Institutional Animal Care and Use Committee of Kalypsys, Inc.
At least 24 hours prior to study initiation, the hair on the rostral dorsum of the animal was clipped to clear a location for intradermal (i.d.) injection of pruritogen (histamine, dissolved in Dulbecco's PBS [pH 7.4] at a concentration of 10 μmol per 20 μL). Animals were dosed by oral gavage with vehicle (9/0.5/0.5/90 PEG-400/Tween-80/PVP-K30/1% carboxymethylcellulose in water) or test compounds (formulated as suspensions in vehicle) at 30 mg/kg in 200 μL by means of a 20 gauge 1.5″ feeding needle affixed to a 1 mL syringe. There were 8 mice per study group. Thirty minutes after oral dosing, animals were injected i.d. with 20 μL of histamine. Immediately afterward animals were placed into individual sections of a standard acrylic cage for observation, which was recorded digitally for a 20 minute period by video cameras (Panasonic SDR-S70/PC) for later review.
Quantitation of induced itch was measured as described previously (Bell, J. K. et al., British Journal of Pharmacology, 142:374-380, 2004) by counting the number of scratching bouts per animal in the 20 minute period after i.d. injection. A scratching bout was defined as three rapid scratch movements of the hind paw in the area of the injection site. Activity with the fore paws was deemed to be grooming and not scratching, and thus was not counted. All data were analyzed using GraphPad Prism (San Diego, Calif.) software, and reported as mean percentage reduction in scratching bouts versus vehicle control. The significance of antagonist effect on agonist-induced itching was analyzed using the nonparametric Mann-Whitney test with P values <0.05 being designated as statistically significant.
Data reported as NT refers to the example having been not tested. It is expected that these compounds when tested will be active and will have utility similar to those that have been tested. In Table 2 below, entries with superscript “1” are statistically significant according to the criteria outlined in the protocol above. Entries with superscript “2” are examples that have been tested on two separate days and the results reported below are the mean of the two experiments

The target of a further test is T2, human H1 (Homo sapiens, UniProt P35367).
T2 construct: host or cells: CHO-K1
Description: In vitro histamine receptor cell-based assay (aequorin bioluminescence), H1 antagonism. The note with it: CHO-K1 cells expressing human H1 and aequorin; histamine at EC80; read-out: H1 Antagonist EC50. Summed up: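 Antagonism read as drop in aequorin luminescence after histamine challenge at a predetermined EC80, following 15 min compound pretreatment at room temperature. Cells: CHO-K1 carrying human H1, or H4 with Gα16; signal as AUC or amplitude, normalised to 10 μM diphenhydramine (H1) or JNJ7777120 (H4).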

Test [2] relates to Hartley VAF outbred guinea pigs. As to the kind of experiment: Allergic conjunctivitis in passively sensitized guinea pigs (conjunctival EPO activity). Format: in vivo. More on the design: key: +: a ≦0.1% qd dose was statistically equivalent to dexamethasone with respect to reduction of EPO activity; −: the compound was statistically inferior to dexamethasone and not different than vehicle. Conditions: ≦0.1% qd topical, 1 hour prior to ovalbumin challenge; reduction of conjunctival EPO activity vs dexamethasone. On the procedure:
as §1, §2

Where only a bound is given, the exact number is not on record here.

T1 sequence (Q9H3N8 whole entry): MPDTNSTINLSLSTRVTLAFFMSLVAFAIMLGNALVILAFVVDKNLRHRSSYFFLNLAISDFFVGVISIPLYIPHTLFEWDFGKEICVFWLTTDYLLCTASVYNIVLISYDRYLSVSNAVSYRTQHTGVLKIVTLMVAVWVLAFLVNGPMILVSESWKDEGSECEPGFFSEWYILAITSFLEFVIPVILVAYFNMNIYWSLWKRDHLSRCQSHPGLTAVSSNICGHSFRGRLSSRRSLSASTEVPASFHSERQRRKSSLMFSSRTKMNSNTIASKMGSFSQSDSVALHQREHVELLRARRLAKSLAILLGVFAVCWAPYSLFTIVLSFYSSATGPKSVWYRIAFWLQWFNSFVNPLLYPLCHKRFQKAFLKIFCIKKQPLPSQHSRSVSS
T2 sequence (P35367 whole entry): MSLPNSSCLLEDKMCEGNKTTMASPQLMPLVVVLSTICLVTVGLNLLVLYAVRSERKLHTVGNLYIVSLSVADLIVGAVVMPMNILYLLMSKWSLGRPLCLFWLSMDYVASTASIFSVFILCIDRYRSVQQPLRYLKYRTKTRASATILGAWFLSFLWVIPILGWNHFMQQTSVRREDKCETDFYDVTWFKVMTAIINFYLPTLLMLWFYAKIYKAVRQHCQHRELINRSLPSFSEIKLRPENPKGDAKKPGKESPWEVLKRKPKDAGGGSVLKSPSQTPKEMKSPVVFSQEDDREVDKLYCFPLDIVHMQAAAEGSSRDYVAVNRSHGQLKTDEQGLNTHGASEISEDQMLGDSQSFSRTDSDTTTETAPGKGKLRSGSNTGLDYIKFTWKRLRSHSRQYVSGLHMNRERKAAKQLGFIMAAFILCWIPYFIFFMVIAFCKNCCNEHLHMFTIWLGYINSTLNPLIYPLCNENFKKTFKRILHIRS

With `CN1CCN(c2nc3ccc(Cl)cc3n3nnnc23)CC1` [Example 20, 8-Chloro-4-(4-methylpiperazin-1-yl)tetrazolo[1,5-a]quinoxaline], the values for the EC50 at human H4 and on human H1 were under 10 µM and over 10 µM, respectively. In addition, the BID activity entry in test [1] is listed as “−”. Further, in the test on CD-1 mice, the “Scratching Bouts (% change from vehicle control)” value was −1%.

As for `Cc1nc2c3cc(C(F)(F)F)ccc3nc(N3CCN(C)CC3)n2n1` [Example 103, 2-Methyl-5-(4-methylpiperazin-1-yl)-9-(trifluoromethyl)-[1,2,4]triazolo[1,5-c]quinazoline], the values for the half-maximal effective concentration (EC50) at human H4 and at human H1 were under 10 µM and over 10 µM, respectively. In addition, in test [2], the QD activity entry is given as “+”. For the same compound, in the test with CD-1 mice, the “Scratching Bouts (% change from vehicle control)” value is recorded as −37%.

For `Cc1nc2c3cc(Cl)ccc3nc(N3CCNCC3)n2n1` [Example 112, 9-Chloro-2-methyl-5-(piperazin-1-yl)-[1,2,4]triazolo[1,5-c]quinazoline], the EC50 on human H4 is under 10 µM; at human H1, over 10 µM. In the test on CD-1 mice, the “Scratching Bouts (% change from vehicle control)” value was −73^1%.

`Cc1nc2c3cc(Cl)ccc3nc(N3CCN(C)CC3)n2n1` [Example 113, 9-chloro-2-methyl-5-(4-methylpiperazin-1-yl)-[1,2,4]triazolo[1,5-c]quinazoline]: the results for the EC50 at human H4 and at human H1 were under 10 µM and over 10 µM, respectively. In addition, in test [1], the BID activity result is listed as “−”. The “Scratching Bouts (% change from vehicle control)” value in the test on CD-1 mice is recorded as −66^1,2%.

In the case of `CN1CCN(c2nc3ccc(Cl)cc3c3c[nH]nc23)CC1` [Example 152, 8-Chloro-4-(4-methylpiperazin-1-yl)-2H-pyrazolo[3,4-c]quinoline], the EC50 on human H4 was under 10 µM; at human H1, over 10 µM. Moreover, the BID activity entry in test [1] is listed as “−”. The “Scratching Bouts (% change from vehicle control)” value in the test with CD-1 mice is given as −13%.

Values taken from US20120065187A1 (ALCON RESEARCH, LTD, priority 2008, published 2012).
